These results are taken from patent publication US9315464B1 (priority 2013, dated 2016).

Series [1] concerns influenza A reporter assay system (viral UTR promoter / viral RNA-dependent RNA polymerase). Type of series: cell-based, Influenza A virus (mouse B16-F10 melanoma cells).
The test system of series [2] is influenza A/Puerto Rico/8/34 virus. The experiment in a line: Hemagglutination assay of influenza A replication in MDCK cells. In kind it is cell-based. Particulars: 75 uM compound, influenza A/Puerto Rico/8/34 dilution series, FIG. 5A.
Series [3] relates to non-specific promoter (BAX promoter-driven luciferase) in HEK-293T cells. Briefly: irrelevant promoter-containing cell-based reporter assay (luciferase driven by the BAX promoter, control). As to conditions: BAX promoter luciferase in HEK-293T cells, indicator of non-specific toxicity. (In general: In a reporter assay the amount or activity of a reporter protein is the signal.)

In the case of `O=C(Nc1ccc(S(=O)(=O)Nc2nccs2)cc1)c1cc(-c2ccccc2)nc2ccccc12` [A0259, 2-phenyl-N-{4-[(1,3-thiazol-2-yl)sulfamoyl]phenyl}quinoline-4-carboxamide], the “inhibition of the influenza reporter system” value in series [1] was “most dramatic inhibition”. Further, the “inhibition of influenza A viral replication in recipient cells (hemagglutination, settling cell buttons)” value in series [2] is given as “viral dilutions below a thousand-fold from stock were inhibited from successfully replicating”. In addition, the “impact on a non-specific promoter” value in series [3] is recorded as “smallest impact”.
